Reference: US4950739A (priority 1988, dated 1990)
Read-outs that look alike come from different tables or passages of the source.

Legend:
[1] = system: low-threshold calcium channel in central neurons; settings: Tang C-M., et al., Science, 240:213; cited from earlier work
[2] = system: calcium channel in vesicles; assay: Calcium uptake into quin-2-loaded vesicles (fluorescence)
[3] = system: calcium channel reconstituted in a lipid bilayer; assay type: biochemical, guinea pig; settings: for concentration at which single channels were blocked: cerebellar-origin channel, 80 mM BaCl2 cis / 120 mM CsCl trans; for calcium channel activity of the reconstituted channel: concentration not given
[4] = system: low-threshold calcium channel; assay: Low-threshold calcium channel isolated on amiloride gel, lipid bilayer; assay type: biochemical, Guinea pig; settings: 250micromolar
Procedure: Guinea pig cerebellar material was processed as in Example 7. It was then purified according to the method of Example 8 except that the amiloride gel chromatography was performed after the factor-coupled gel chromatography. (The latter chromatographic purification was thus used to remove the high-threshold channel recognized by the active factor of the present invention.)
The low-threshold calcium channel was eluted from the amiloride gel using 400 mM sucrose, 10 mM HEPES (pH 7.4) containing 1 mM amiloride.
The channel activity of the thus-purified gel was tested as described above by the lipid bilayer technique. The channel has an estimated conductance of about 8 pS, is characterized by rapid openings (of the order of 1-100 msec at […]), is rapidly inactivated (within about 1 sec at the same depolarization), and was blocked by cadmium (250micromolar).

## N=C(N)NC(=O)c1nc(Cl)c(N)nc1N [amiloride, 3,5-diamino-N-(aminoiminomethyl)-6-chloropyrazine carboxamide]
[1]
  block of low-threshold calcium channel: specifically blocks

## [Cd] [cadmium]
[2]; 50 micromolar, calcium 2 mM additions
  uptake of calcium into the vesicles: blocked
[2]; 100 micromolar before addition of 2 mM CaCl2
  intravesicular fluorescence over time: did not increase with time and remained at the baseline
[3]
  concentration at which single channels were blocked: less than 100 micromolar
  calcium channel activity of the reconstituted channel: blocked
[3]; listed as Cd^++
  calcium channel activity of the reconstituted channel: completely blocked
[4]
  low-threshold channel activity: blocked

## [Co] [cobalt]
[3]; 100 mM CaCl2 pH 7.5 and 20 M × 10^-6 Co^++ outside only, voltage range ±200
  Calcium Conductance: none
[3]
  concentration at which single channels were blocked: less than 100 micromolar
  calcium channel activity of the reconstituted channel: blocked
[3]; listed as Co^++
  calcium channel activity of the reconstituted channel: completely blocked

## COC(=O)C1=C(C)NC(C)=C(C(=O)OC)C1c1ccccc1[N+](=O)[O-] [nifedipine]
[3]; 5×10^-6 M
  effect on the isolated calcium channels: neither blocker had an effect
